Source: ChEMBL document CHEMBL1124582, “Design of potential anti-HIV agents. 1. Mannosidase inhibitors” (J Med Chem, 1989)

Assay: Inhibitory activity against Mannosidase in rat liver

Row | SMILES | IC50 [µM]
1 | O[C@@H]1[C@H]2[C@@H](O)CCCN2C[C@H]1O | ~50
2 | O[C@H]1[C@H]2[C@@H](O)CCCN2C[C@H]1O | ~50
3 | OC1CN2CCCCC2C1O (centres undefined) | 7500
4 | O[C@H]1[C@@H]2[C@H](O)CCCN2C[C@H]1O | ~10
